Data: patent US8431527B2, “Methods for alleviating deleterious effects of 3-deoxyglucosone” (Fox Chase Cancer Center, priority 1997, dated 2013)

Legend:
[1] = Locus of 3-O-methyl sorbitollysine uptake in vivo (tissue, urine, plasma recovery); design: species or system rats
Method: Six rats were injected intraperitoneally with […] (4.4 mg) of 3-O-methyl sorbitollysine. The rats' urine was collected for 3 hours, after which the rats were sacrificed. The tissues to be analyzed were removed and freeze clamped in liquid nitrogen. Perchloric acid extracts of the tissues were used for metabolite analysis. The tissues examined were taken from the brain, heart, muscle, sciatic nerve, spleen, pancreas, liver and kidney. Plasma and urine were also analyzed.

3DG = assay: 3-O-methyl sorbitollysine lowers plasma 3DG in diabetic and non-diabetic rats; format: in vivo; conditions: Day 8
Method: A cohort of twelve diabetic rats was divided into two groups of six. The first group received saline-only injections, and the second received injections of 3-O-methyl sorbitollysine in saline solution. The same procedure was conducted on a cohort of twelve non-diabetic rats.

[2] = Stability of FL3P in aqueous solution; format: physicochemical; conditions: degrades to 3DG, lysine and inorganic phosphate
Description: FL3P is not stable in aqueous solution. It rapidly degrades to form 3DG, lysine and inorganic phosphate. This reaction also occurs in vivo. It is not currently know if the degradation of FL3P in vivo is a spontaneous or enzyme catalyzed reaction. It is strongly suspected, however, that enzymatic catalysis is involved, as the production of 3DG from fructose lysine occurs very rapidly in intact kidney.

lysine recovery pathway = assay: Urinary FL, 3DG and 3DF in humans following ingestion of glycated protein; format: in vivo; conditions: seven volunteers, 2 g dose of fructoselysine as glycated protein food
Method: c. Experimental protocol: Volunteers spent two days on a fructoselysine-free diet and then consumed 22.5 g of the food product prepared as described herein, thus effectively receiving a 2 g. dose of fructoselysine. Urine was collected at 2 hour intervals for 14 hours and a final collection was made at 24 hours. d. Measurement of FL, 3DG and 3DF in urine: FL was measured by HPLC with a Waters 996 diode Array using a Waters C18 Free Amino Acid column at 46° and a gradient elution system of acetonitrile-methyl alcohol-water (45:15:40) into acetonitrile-sodium acetate-water (6:2:92) at 1 ml./min. Quantitation employed an internal standard of meglumine. 3DF was measured by HPLC after deionization of the sample. Analyses were performed on a Dionex DX-500 HPLC system employing a PA1 column (Dionex) and eluting with 32 mM sodium hydroxide at 1 ml./min. Quantitation was performed from standard curves obtained daily with synthetic 3DF. 3DG was measured by GC-MS after deionization of the sample. 3DG was derivatized with a 10-fold excess of diaminonaphthalene in PBS. Ethyl acetate extraction gave a salt free fraction which was converted to the trimethyl silyl ethers with Tri-Sil (Pierce). Analysis was performed on a Hewlett-Packard 5890 selected ion monitoring GC-MS system. […] Quantitation of 3DG employed selected ion monitoring using an internal standard of U-13C-3DG.

kidney proteins = test system: kidney proteins; design: species or system rats; conditions: rat, in vivo
Method: Two rats were injected daily with 5 μmols. of either FL or mannitol (used as a control) for 5 days. The animals were sacrificed and the kidneys removed and dissected into the cortex and medulla. Tissues were homogenized in 5 volumes of 50 mM Tris.HCl containing 150 mM KCl, 15 mM MgCl2 and 5 mM DTT, pH 7.5. Cellular debris was removed by centrifugation at 10,000 g for 15 minutes, and the supernate was then centrifuged at 150,000 g for 70 minutes. The soluble proteins were analyzed by SDS PAGE on 12% polyacrylamide gels as well as on 4-15 and 10-20% gradient gels.

FL3P = assay: Kidney FL3P after injection of synthetic fructose-lysine; format: in vivo; conditions: non-diabetic rats
Method: This identification was confirmed in two ways. Authentic fructose-lysine-3-phosphate (FL3P) was synthesized by the procedure disclosed in Example 2, below, and shown to co-resonate in the ^31P NMR spectrum with the peak in diabetic rat kidneys. Synthetic fructose-lysine was also injected into non-diabetic rats.

3-deoxyglucosone = assay: Reduction of urinary and plasma 3-deoxyglucosone after intraperitoneal injection; format: in vivo; conditions: rats, 10 μmols intraperitoneal
Method: Urine was collected from six rats for three hours. A plasma sample was also obtained. The animals were then given 10 μmols of either sorbitollysine, mannitollysine, or galactitollysine by intraperitoneal injection. Urine was collected for another three hours, and a plasma sample obtained at the end of the three hours.
3-deoxyglucosone was measured in these samples, as described in Example 5, below, and variable volumes were normalized to creatinine. The average reduction of urinary 3-deoxyglucosone was 50% by sorbitollysine, 35% by mannitollysine and 35% by galactitollysine. Plasma 3-deoxyglucosone was reduced 40% by sorbitollysine, 58% by mannitolysine and 50% by galactitollysine.
c. Use of meglumine to reduce urinary 3-deoxyglucosone. Three rats were treated as in b), immediately above, except meglumine (100 μmols) was injected intraperitoneally instead of the above-mentioned lysine derivatives. Three hours after the injection the average 3-deoxyglucosone concentrations in the urine were decreased 42%.
3DG was measured by GC-MS after deionization of the sample. 3DG was derivatized with a 10-fold excess of diaminonaphthalene in PBS. Ethyl acetate extraction gave a salt free fraction which was converted to the trimethyl silyl ethers with Tri-Sil (Pierce). […] Quantitation of 3DG employed selected ion monitoring using an internal standard of U-13C-3DG.

[3] = 3 hours after intraperitoneal injection

COC(C(O)CNCCCCC(N)C(=O)O)C(O)C(O)CO (centres unmarked) [3-O-methyl Sorbitollysine, 3-O-methyl sorbitollysine]
compound present in plasma [1, 3]: plasma did not | tissue extracts containing compound (brain, heart, muscle, sciatic nerve, spleen, pancreas, liver, kidney) [1, 3]: only tissue extract found to contain 3-O-methyl sorbitollysine was that of the kidney | compound present in urine ([1]; urine collected for 3 hours): urine also contained 3-O-methyl sorbitollysine | percent reduction of plasma 3DG vs saline control (3DG; diabetic rats): 53% | percent reduction of plasma 3DG vs saline control (3DG; non-diabetic rats): 43%

NC(CCCCNCC(=O)C(OP(=O)(O)O)C(O)C(O)CO)C(=O)O (centres unmarked) [FL3P, fructose-lysine-3-phosphate]
stability in aqueous solution [2]: not stable

NC(CCCCNCC(=O)C(O)C(O)C(O)CO)C(=O)O (centres unmarked) [FL, 1-deoxy-1-(ε-aminolysine)-fructose]
time of peak urinary 3DF excretion after the FL bolus (lysine recovery pathway): about 4 hours | SDS PAGE of soluble kidney proteins vs mannitol-injected animal (kidney proteins): lower molecular weight bands were missing or visually reduced | levels of FL3P in kidneys following injection (FL3P): substantial increase

galactitol lysine [galactitollysine]
plasma 3-deoxyglucosone reduced (3-deoxyglucosone; plasma at end of three hours): 50% | average reduction of urinary 3-deoxyglucosone (3-deoxyglucosone; urine collected three hours after vs before, normalized to creatinine): 35%
